Reference: patent publication US5281628A, “9-amino-7-(substituted)-6-demethyl-6-deoxytetracyclines” (American Cyanamid Company, priority 1991, dated 1994)
Counter-ions that a name gives are not always drawn.

Assays:
[1] = system: S. aureus UBMS 90-3 (tetracycline-sensitive); assay: MIC, microtiter broth dilution; assay type: cell-based; conditions: Staphylococcus aureus, 18 h
Procedure: (§1) The minimum inhibitory concentration (MIC), the lowest concentration of the antibiotic which inhibits growth of the test organism, is determined by the microtiter broth dilution method using 0.1 ml Muller-Hinton II broth (Baltimore Biological Laboratories) per well. A suitable oxygen scavenger (i.e., cysteine or dithiothreitol) is added to the assay medium for the testing of compounds according to Formula I because of the sensitivity of those compounds to oxidation. An inoculum level of 1-5×10^5 CFU/ml and a range of antibiotic concentrations (32 0.004 μg/ml) are used.

[2] = system: S. aureus IVES 1983 (methicillin-resistant); assay: MIC, microtiter broth dilution; assay type: cell-based; conditions: Staphylococcus aureus, 18 h
Procedure: as §1

[3] = system: S. aureus CI 3300 (methicillin-resistant); assay: MIC, microtiter broth dilution; assay type: cell-based; conditions: Staphylococcus aureus, 18 h
Procedure: as §1

[4] = system: Coagulase negative staphylococci CI 664; assay: MIC, microtiter broth dilution; assay type: cell-based; conditions: 18 h
Procedure: as §1

[5] = system: S. aureus CI 2371 (methicillin-resistant); assay: MIC, microtiter broth dilution; assay type: cell-based; conditions: Staphylococcus aureus, 18 h
Procedure: as §1

S. aureus ATCC 29213 = assay: MIC, microtiter broth dilution; assay type: cell-based; conditions: Staphylococcus aureus, ATCC29213, 18 h
Procedure: as §1

[6] = system: Coagulase negative staphylococci CI 535; assay: MIC, microtiter broth dilution; assay type: cell-based; conditions: 18 h
Procedure: as §1

[7] = system: E. coli UBMS 90-5 (tetracycline-sensitive); assay: MIC, microtiter broth dilution; assay type: cell-based; conditions: Escherichia coli, 18 h
Procedure: as §1

P. aeruginosa ATCC 27853 = assay: MIC, microtiter broth dilution; assay type: cell-based; conditions: Pseudomonas aeruginosa, ATCC27853, 18 h
Procedure: as §1

S. aureus Smith (sens) = assay: Acute lethal infections in mice; assay type: in vivo; conditions: Staphylococcus aureus, 168 h, Single Dose, 7 day survival
Procedure: (§2) The therapeutic effects of tetracyclines are determined against acute lethal infections with various staphylococcal and E. coli strains. Female mice, strain CD-1 Charles River Laboratories, (20±2 grams) are challenged by an intraperitoneal injection of sufficient bacteria (suspended in broth or hog gastric mucin) to kill non-treated controls within 24-48 hours. Antibacterial agents, contained in 0.5 ml of 0.2% aqueous agar, are administered subcutaneously or orally 30 minutes after infection. When an oral dosing schedule is used, animals are deprived of food for 5 hours before and 2 hours after infection. Five mice are treated at each dose level. The 7 day survival ratios from three separate tests are pooled for calculation of median effective dose (ED50).

E. coli UBMS 90-4 (tetM) = assay: Acute lethal infections in mice; assay type: in vivo; conditions: Escherichia coli, sc, 168 h
Procedure: as §2

E. coli 311 (sens) = assay: Acute lethal infections in mice; assay type: in vivo; conditions: Escherichia coli, sc, 168 h, Subcutaneous, Single Dose, 7 day survival
Procedure: as §2

[8] = system: S. aureus UBMS 90-1 (tetM); assay: Acute lethal infections in mice; assay type: in vivo; conditions: Staphylococcus aureus, sc, 168 h
Procedure: as §2

[9] = system: S. aureus UBMS 90-2 (tetM); assay: Acute lethal infections in mice; assay type: in vivo; conditions: Staphylococcus aureus, 168 h
Procedure: as §2

[10] = system: tetracycline sensitive and resistant Gram-positive and Gram-negative bacteria; assay: In vitro antibacterial evaluation, statements on the whole panel; assay type: cell-based
Procedure: as §1

[11] = system: E. coli S30 Ribosomes, tetM Variant (tetM protected ribosomes); assay: In vitro protein translation with E. coli S30 ribosomes, tetM variant; assay type: biochemical; conditions: for inhibition of protein synthesis on tetM protected ribosomes (in words): coupled transcription and translation system
Procedure: The E. coli in vitro translation system can be used to study not only the mechanism of protein translation itself, but also the effect that various compounds may have on protein synthesis. The system can be set up to function as a coupled transcription and translation system or as a translation only system depending on whether DNA or RNA is added to initiate protein synthesis. In this way, compounds affecting either RNA synthesis and/or protein synthesis can be studied. Protein synthesis is monitored by the incorporation of radiolabeled amino acids into trichloroacetic acid precipitable material. The system used is based upon literature methods [G. Zubay, Ann. Rev. Genet., 7: 267-287(1973) and J. Collins, Gene, 6: 28-42 (1979)].
The system used to study tetracycline protein synthesis inhibition is as follows:
An S30 extract (supernatant from a 30,000×G centrifugation of lysed cells) of either tetracycline sensitive or tetracycline resistant (tetM+) cells is combined with a mixture of low molecular weight compounds required for protein synthesis which include a mixture of 19 amino acids, methionine, ^35 S-methionine, plasmid template DNA and either dimethylsulfoxide (DMSO) or the tetracycline to be tested dissolved and diluted in DMSO. This mixture is incubated at 37° C. for 30 minutes. Following the incubation, 2.5 μl of the 10 μl reaction is removed and added to 0.5 ml of 1N sodium hydroxide. The solution is incubated an additional 15 minutes at 37° C., to destroy any m-RNA and t-RNA. The incorporation of ^35 S-methionine is determined by precipitating the high molecular weight material in the sodium hydroxide aliquot with trichloroacetic acid (TCA), collecting the precipitated material on Whatman G/FC filters, drying the filters and counting the radioactivity retained on the filter. Percent inhibition (P.I.) of protein synthesis is determined by the following equation: [formula]

[12] = in the presence of cysteine (0.05%)
[13] = tetM S30 with DTT, 1:2 Dilution
[14] = tetM S30 with DTT, 1:4 Dilution
[15] = tetM S30 with DTT, 1:8 Dilution
[16] = tetM S30 with DTT, 1:16 Dilution
[17] = tetM S30 with DTT, 1:32 Dilution
[18] = tetM S30 with DTT, 1:64 Dilution

`CN(C)c1cc(N)c(O)c2c1C[C@H]1C[C@H]3[C@H](N(C)C)C(O)=C(C(N)=O)C(=O)[C@@]3(O)C(O)=C1C2=O` [A, 9-Amino-7-(dimethylamino)-6-demethyl-6-deoxytetracycline hydrochloride] showed an MIC [1, 12] of 0.015 µg/mL, an MIC [2, 12] of 0.5 µg/mL and an MIC [3, 12] of 0.25 µg/mL. It also gave an MIC [4, 12] of 0.003 µg/mL, an MIC [5, 12] of 0.5 µg/mL and an MIC (S. aureus ATCC 29213; [12]) of 0.008 µg/mL. It also gave an MIC [6, 12] of 1 µg/mL, an MIC [7, 12] of 0.25 µg/mL and an MIC (P. aeruginosa ATCC 27853; [12]) of 2 µg/mL. The ED50 (S. aureus Smith (sens); Oral) was 0.81 mg/kg, the ED50 (S. aureus Smith (sens); sc, Subcutaneous) was 0.34 mg/kg and the ED50 (E. coli UBMS 90-4 (tetM)) was 24 mg/kg. For the same compound, the ED50 (E. coli 311 (sens)) was 2.8 mg/kg, the ED50 [8] was 0.3 mg/kg and the ED50 ([9]; po) was 1.6 mg/kg. The ED50 ([9]; sc) was 0.53 mg/kg, the “in vitro activity against tetracycline resistant strains carrying the tetM resistance determinant” value ([10]; S. aureus UBMS 88-5, 90-1 and 90-2, E. coli UBMS 89-1 and 90-4) was “good in vitro activity” and the “effectiveness vs. susceptible strains compared with B” value ([10]; susceptible strains, comparator B) was “equally as effective”. The “inhibition of protein synthesis on tetM protected ribosomes (in words)” value [11] was “effective in inhibiting protein synthesis”, the “% Inhibition” value ([11]; tetM S30 no DTT, 1.0 mg/ml) was 48% and the Counts ([11]; tetM S30 no DTT, 1.0 mg/ml) was 129780. The “% Inhibition” value ([11]; tetM S30 no DTT, 1:2 Dilution) was 36%, the Counts ([11]; tetM S30 no DTT, 1:2 Dilution) was 158861 and the “% Inhibition” value ([11]; tetM S30 no DTT, 1:4 Dilution) was 18%. The Counts ([11]; tetM S30 no DTT, 1:4 Dilution) was 203184, the “% Inhibition” value ([11]; tetM S30 no DTT, 1:8 Dilution) was 7% and the Counts ([11]; tetM S30 no DTT, 1:8 Dilution) was 231447. For the same compound, the “% Inhibition” value ([11]; tetM S30 no DTT, 1:16 Dilution) was 0%, the Counts ([11]; tetM S30 no DTT, 1:16 Dilution) was 305633 and the “% Inhibition” value ([11]; tetM S30 no DTT, 1:32 Dilution) was 0%. The Counts ([11]; tetM S30 no DTT, 1:32 Dilution) was 349994, the “% Inhibition” value ([11]; tetM S30 no DTT, 1:64 Dilution) was 0% and the Counts ([11]; tetM S30 no DTT, 1:64 Dilution) was 310723. For the same compound, the “% Inhibition” value ([11]; tetM S30 with DTT, 1.0 mg/ml) was 68%, the Counts ([11]; tetM S30 with DTT, 1.0 mg/ml) was 145068 and the “% Inhibition” value [11, 13] was 62%. For the same compound, the Counts [11, 13] was 168574, the “% Inhibition” value [11, 14] was 49% and the Counts [11, 14] was 226708. For the same compound, the “% Inhibition” value [11, 15] was 36%, the Counts [11, 15] was 284606 and the “% Inhibition” value [11, 16] was 16%. The Counts [11, 16] was 375989, the “% Inhibition” value [11, 17] was 8% and the Counts [11, 17] was 412967. The “% Inhibition” value [11, 18] was 0% and the Counts [11, 18] was 507461.

With `CN(C)c1ccc(O)c2c1C[C@H]1C[C@H]3[C@H](N(C)C)C(O)=C(C(N)=O)C(=O)[C@@]3(O)C(O)=C1C2=O` [B, 7-(Dimethylamino)-6-demethyl-6-deoxytetracycline hydrochloride] the MIC ([1]; no cysteine stated) was 0.015 µg/mL, the MIC ([2]; no cysteine stated) was 1 µg/mL and the MIC ([3]; no cysteine stated) was 8 µg/mL. It also gave an MIC ([4]; no cysteine stated) of 0.015 µg/mL, an MIC ([5]; no cysteine stated) of 4 µg/mL and an MIC (S. aureus ATCC 29213; no cysteine stated) of no more than 0.004 µg/mL. For the same compound, the MIC ([6]; no cysteine stated) was 8 µg/mL, the MIC ([7]; no cysteine stated) was 0.5 µg/mL and the MIC (P. aeruginosa ATCC 27853; no cysteine stated) was 4 µg/mL. It also gave an ED50 (S. aureus Smith (sens); Oral) of 0.53 mg/kg, an ED50 (S. aureus Smith (sens); sc, Subcutaneous) of 0.32 mg/kg and an ED50 (E. coli UBMS 90-4 (tetM)) greater than 256 mg/kg. For the same compound, the ED50 (E. coli 311 (sens)) was 3.1 mg/kg, the ED50 [8] was 1.7 mg/kg and the ED50 ([9]; po) was 1.8 mg/kg. For the same compound, the ED50 ([9]; sc) was 1.8 mg/kg, the “Antibacterial potency in the presence of cysteine” value ([10]; in the presence of cysteine versus without) was “not enhanced” and the “inhibition of protein synthesis on tetM protected ribosomes (in words)” value [11] was “unable to inhibit protein synthesis”. For the same compound, the “% Inhibition” value ([11]; tetM S30 no DTT, 1.0 mg/ml) was 0%, the Counts ([11]; tetM S30 no DTT, 1.0 mg/ml) was 281528 and the “% Inhibition” value ([11]; tetM S30 no DTT, 1:2 Dilution) was 0%. For the same compound, the Counts ([11]; tetM S30 no DTT, 1:2 Dilution) was 258633, the “% Inhibition” value ([11]; tetM S30 no DTT, 1:4 Dilution) was 0% and the Counts ([11]; tetM S30 no DTT, 1:4 Dilution) was 248904. The “% Inhibition” value ([11]; tetM S30 no DTT, 1:8 Dilution) was 0%, the Counts ([11]; tetM S30 no DTT, 1:8 Dilution) was 289595 and the “% Inhibition” value ([11]; tetM S30 no DTT, 1:16 Dilution) was 0%. The Counts ([11]; tetM S30 no DTT, 1:16 Dilution) was 287498, the “% Inhibition” value ([11]; tetM S30 no DTT, 1:32 Dilution) was 0% and the Counts ([11]; tetM S30 no DTT, 1:32 Dilution) was 262329. The “% Inhibition” value ([11]; tetM S30 no DTT, 1:64 Dilution) was 0%, the Counts ([11]; tetM S30 no DTT, 1:64 Dilution) was 249242 and the “% Inhibition” value ([11]; tetM S30 with DTT, 1.0 mg/ml) was 17%. For the same compound, the Counts ([11]; tetM S30 with DTT, 1.0 mg/ml) was 371475, the “% Inhibition” value [11, 13] was 26% and the Counts [11, 13] was 331439. The “% Inhibition” value [11, 14] was 17%, the Counts [11, 14] was 373168 and the “% Inhibition” value [11, 15] was 6%. For the same compound, the Counts [11, 15] was 421533, the “% Inhibition” value [11, 16] was 0% and the Counts [11, 16] was 493679. The “% Inhibition” value [11, 17] was 0%, the Counts [11, 17] was 490283 and the “% Inhibition” value [11, 18] was 0%. It also gave a Counts [11, 18] of 452837.
